Measurements reported in PubChem BioAssay (NCI).
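How tested: cells in 96-well plates exposed to compound for 48 hours at five concentrations. TGI: total growth inhibition.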

Assays:
Assay in all cases: NCI-60 cell line screen, 48 h
786-0 renal = test system: 786-0 renal
A549 NSCLC = test system: A549 NSCLC
CAKI-1 renal = test system: CAKI-1 renal
CCRF-CEM leukemia = test system: CCRF-CEM leukemia
HCC-2998 colon = test system: HCC-2998 colon
HT29 colon = test system: HT29 colon
K-562 leukemia = test system: K-562 leukemia
MOLT-4 leukemia = test system: MOLT-4 leukemia
OVCAR-4 ovarian = test system: OVCAR-4 ovarian
OVCAR-5 ovarian = test system: OVCAR-5 ovarian
SF-539 CNS = test system: SF-539 CNS
SK-MEL-2 melanoma = test system: SK-MEL-2 melanoma
SK-MEL-28 melanoma = test system: SK-MEL-28 melanoma
SK-OV-3 ovarian = test system: SK-OV-3 ovarian
SN12C renal = test system: SN12C renal
HCT-15 colon = test system: HCT-15 colon
TK-10 renal = test system: TK-10 renal
HS 578T breast = test system: HS 578T breast
MDA-MB-435 = test system: MDA-MB-435

SMILES | TGI (786-0 renal) | TGI (A549 NSCLC) | TGI (CAKI-1 renal) | TGI (CCRF-CEM leukemia) | TGI (HCC-2998 colon) | TGI (HT29 colon) | TGI (K-562 leukemia) | TGI (MOLT-4 leukemia) | TGI (OVCAR-4 ovarian) | TGI (OVCAR-5 ovarian) | TGI (SF-539 CNS) | TGI (SK-MEL-2 melanoma) | TGI (SK-MEL-28 melanoma) | TGI (SK-OV-3 ovarian) | TGI (SN12C renal) | TGI (HCT-15 colon) | TGI (TK-10 renal) | TGI (HS 578T breast) | TGI (MDA-MB-435)
COc1ccc(/C=C/c2cc(OC)c(OCc3ccccc3)c(OC)c2)cc1 | > 100 µM | > 100 µM | > 100 µM | > 100 µM | > 100 µM | > 100 µM | > 100 µM | > 100 µM | > 100 µM | 94.5 µM | > 100 µM | > 100 µM | > 100 µM | > 100 µM | > 100 µM |  |  |  | 
O=C(Nc1nc2ncn(CCO)c2c(=O)[nH]1)c1ccccc1 | > 100 µM | > 100 µM | > 100 µM | > 100 µM |  | > 100 µM | > 100 µM |  | > 100 µM | > 100 µM | > 100 µM | > 100 µM | > 100 µM | > 100 µM | > 100 µM | > 100 µM | > 100 µM |  | 
COC(=O)c1ccc(C=C(C#N)C#N)cc1 | 33.4 µM | > 100 µM | 74.7 µM | 51.9 µM | 32.9 µM | > 100 µM | 62.8 µM | 65.7 µM | 47 µM | > 100 µM | 39.8 µM | 38.1 µM | 39.9 µM | > 100 µM | 41.6 µM | > 100 µM | 79.1 µM |  | 
Nc1nc2ncn(CC(O)CO)c2c(=O)[nH]1 (stereo not given) | > 100 µM | > 100 µM | > 100 µM | > 100 µM |  | > 100 µM | > 100 µM |  | > 100 µM | > 100 µM | > 100 µM | > 100 µM | > 100 µM | > 100 µM | > 100 µM | > 100 µM | > 100 µM |  | 
CC(=O)Nc1ccc(S(=O)(=O)NN(C)S(=O)(=O)c2ccc(C)cc2)cc1 | > 100 µM | > 100 µM | > 100 µM | > 100 µM | > 100 µM | > 100 µM | > 100 µM | > 100 µM | > 100 µM | > 100 µM | > 100 µM | > 100 µM | > 100 µM | > 100 µM | > 100 µM |  | > 100 µM |  | 
O=C(N/N=C(\C1=Nc2ccc(Cl)cc2NC1O)C(O)/C=C/c1ccccc1)c1ccncc1 (stereo not given) | > 100 µM | > 100 µM | > 100 µM | > 100 µM | > 100 µM | > 100 µM | > 100 µM | > 100 µM | > 100 µM | > 100 µM | > 100 µM |  | > 100 µM | > 100 µM | > 100 µM | > 100 µM | > 100 µM |  | 
CC1CC(N2CCOCC2)=Nc2ccccc2N1Cc1ccccc1 (stereo not given) | > 100 µM | > 100 µM | > 100 µM | > 100 µM |  | > 100 µM | > 100 µM |  | > 100 µM | > 100 µM |  | > 100 µM | > 100 µM | > 100 µM | > 100 µM | > 100 µM | > 100 µM | > 100 µM | > 100 µM
c1ccc(C2=C(c3ccccc3)Sc3nnc(CCCCCCCCc4nnc5n4NC(c4ccccc4)=C(c4ccccc4)S5)n3N2)cc1 | > 100 µM | > 100 µM | > 100 µM | 72.4 µM | > 100 µM | > 100 µM | > 100 µM | 49.9 µM | > 100 µM | > 100 µM | > 100 µM | > 100 µM | > 100 µM | > 100 µM | > 100 µM | > 100 µM | > 100 µM | > 100 µM | > 100 µM
NC(CCCCNCc1ccccc1O)C(=O)O (stereo not given) | > 100 µM | > 100 µM | > 100 µM | > 100 µM | > 100 µM | > 100 µM | > 100 µM | > 100 µM | > 100 µM | > 100 µM | > 100 µM | > 100 µM | > 100 µM | > 100 µM | > 100 µM | > 100 µM | > 100 µM |  | 
CSC(=N)N1N=C2/C(=C/c3ccccc3)CCC[C@H]2[C@H]1c1ccccc1 | 20.3 µM | 16.3 µM |  | 8.2 µM | 10.4 µM | 5.54 µM | 6.09 µM | 12.6 µM | 11.8 µM | 14.7 µM | 19.5 µM | 15.4 µM | 12 µM | 18.2 µM | 14.1 µM | 20.9 µM | 25.8 µM |  | 
COc1cc(-c2cc(=O)c3ccccc3[nH]2)cc(OC)c1OC | > 75 µM | > 75 µM |  | > 75 µM | > 75 µM | > 75 µM | > 75 µM | > 75 µM |  |  | > 75 µM |  | > 75 µM | > 75 µM | > 75 µM | > 75 µM | > 75 µM |  | 
CCc1ccccc1NC(=O)CC1NC(=O)CS1 (stereo not given) | > 100 µM | > 100 µM | > 100 µM | > 100 µM | > 100 µM |  | > 100 µM | > 100 µM | > 100 µM | > 100 µM | > 100 µM | > 100 µM | > 100 µM | > 100 µM | > 100 µM |  | > 100 µM |  | 
